# Laboratory results: US20230085307A1, “PYRIDAZINONE COMPOUND AND HERBICIDE” (NISSAN CHEMICAL CORPORATION, priority 2019, published 2023)
# System: Japanese bulrush
# Experiment: Test Example 1: herbicidal activity, application before weed generation under submerged conditions (Table 16, symbol B)
# Format: in vivo, Japanese bulrush (Schoenoplectus juncoides)
# Settings: 320 g/ha applied herbicide
# Summary of the method: (§1)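 Submerged Wagner pots (alluvial soil, 4 cm water) sown with weed seeds and planted with 2.5-leaf rice seedlings; emulsifiable concentrate diluted in water applied to water surface on sowing day. Held in greenhouse at 25-30 °C; injury scored 0-5 by herbicidal rate after three weeks.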
row,SMILES,Herbicidal effect on B: Japanese bulrush (grade 0-5)
1,Cc1nn(C)c(=O)c(-c2c(-c3ccc(C(F)F)cc3)sc3ccc(F)cc23)c1O [2-227],0 (Herbicidal rate of 5% or less (almost no effect))
2,CCCSc1ccc(-c2sc3ccc(F)cc3c2-c2c(OC(=O)CCC)c(C)nn(C)c2=O)cc1 [2-249],2 (Herbicidal rate of 20% or more and less than 40%)

# System: redroot pigweed
# Experiment: Test Example 5: herbicidal effect by foliage application, plastic box (Table 20, symbol N)
# Format: in vivo, redroot pigweed (Amaranthus retroflexus)
# Settings: foliage application, 320 g/ha, evaluated three weeks after application
# Summary of the method: (§2)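 Sow seeds spot-wise in sterilized diluvial soil; cover with ~1.5 cm soil. Grow 14 days in greenhouse, 25° C. to 30° C. Spray foliage with emulsion diluted to predetermined amount. Rate effect after 3 weeks.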
row,SMILES,herbicidal effect on N: redroot pigweed (criteria 0-5)
1,Cc1nn(C)c(=O)c(-c2c(-c3ccc(C(F)F)cc3)sc3ccc(F)cc23)c1O [2-227],5 (Herbicidal rate of 90% or more (almost completely withered))
2,CCCSc1ccc(-c2sc3ccc(F)cc3c2-c2c(OC(=O)CCC)c(C)nn(C)c2=O)cc1 [2-249],5 (Herbicidal rate of 90% or more (almost completely withered))

# System: Italian ryegrass
# Experiment: Test Example 4: herbicidal effect by soil treatment (Table 19, symbol K)
# Format: in vivo, Italian ryegrass (Lolium multiflorum)
# Settings: amount of applied herbicide 320 g/ha
# Summary of the method: (§3)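 Soil-surface application: an emulsion agent diluted with water to the predetermined dose is sprayed uniformly over seeds lying under roughly 1.5 cm of sterilized diluvial soil. Boxes stay in a greenhouse at 25° C. to 30° C. Three weeks later, each species is graded on previously defined criteria.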
row,SMILES,herbicidal effect on K: Italian ryegrass
1,Cc1nn(C)c(=O)c(-c2c(-c3ccc(C(F)F)cc3)sc3ccc(F)cc23)c1O [2-227],4 (Herbicidal rate of 70% or more and less than 90%)
2,CCCSc1ccc(-c2sc3ccc(F)cc3c2-c2c(OC(=O)CCC)c(C)nn(C)c2=O)cc1 [2-249],0 (Herbicidal rate of 5% or less (almost no effect))

# System: green foxtail
# Experiment: Test Example 5: herbicidal effect by foliage application, plastic box (Table 20, symbol G)
# Format: in vivo, green foxtail (Setaria viridis)
# Settings: foliage application, 320 g/ha, evaluated three weeks after application
# Summary of the method: as §2
row,SMILES,herbicidal effect on G: green foxtail (criteria 0-5)
1,Cc1nn(C)c(=O)c(-c2c(-c3ccc(C(F)F)cc3)sc3ccc(F)cc23)c1O [2-227],4 (Herbicidal rate of 70% or more and less than 90%)
2,CCCSc1ccc(-c2sc3ccc(F)cc3c2-c2c(OC(=O)CCC)c(C)nn(C)c2=O)cc1 [2-249],5 (Herbicidal rate of 90% or more (almost completely withered))

# System: late watergrass
# Experiment: Test Example 2: herbicidal activity, application during weed generation under submerged conditions (Table 17, symbol A)
# Format: in vivo, late watergrass (Echinochloa oryzicola)
# Settings: AAH 320 g/ha; application during weed generation, submerged conditions
# Summary of the method: (§4)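 Alluvial soil in Wagner pots was flooded to 4 cm depth and sown with the three weeds together; pots were kept in a greenhouse at 25° C. to 30° C. At the one to two leaf stage, an emulsion formulation diluted in water to a set rate went onto the water surface; scored three weeks later.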
row,SMILES,"herbicidal effect rating, A: late watergrass"
1,Cc1nn(C)c(=O)c(-c2c(-c3ccc(C(F)F)cc3)sc3ccc(F)cc23)c1O [2-227],0 (Herbicidal rate of 5% or less (almost no effect))
2,CCCSc1ccc(-c2sc3ccc(F)cc3c2-c2c(OC(=O)CCC)c(C)nn(C)c2=O)cc1 [2-249],4 (Herbicidal rate of 70% or more and less than 90%)

# System: Chinese sprangletop
# Experiment: Test Example 3: herbicidal effect by foliage application, Wagner pot (Table 18, symbol D)
# Format: in vivo, chinese sprangletop (Leptochloa chinensis)
# Settings: amount of applied herbicide 320 g/ha
# Summary of the method: (§5)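 Plants were sown in alluvial soil held under 0.1–0.5 cm standing water and grown 14 days in a greenhouse at 25–30 °C. An emulsifiable formulation, water-diluted to the set dose, was then sprayed onto the foliage, and effects were scored three weeks later using previously defined criteria.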
row,SMILES,herbicidal effect on D: Chinese sprangletop
1,Cc1nn(C)c(=O)c(-c2c(-c3ccc(C(F)F)cc3)sc3ccc(F)cc23)c1O [2-227],3 (Herbicidal rate of 40% or more and less than 70%)
2,CCCSc1ccc(-c2sc3ccc(F)cc3c2-c2c(OC(=O)CCC)c(C)nn(C)c2=O)cc1 [2-249],3 (Herbicidal rate of 40% or more and less than 70%)

# System: rice flat sedge
# Experiment: Test Example 3: herbicidal effect by foliage application, Wagner pot (Table 18, symbol E)
# Format: in vivo, rice flat sedge (Cyperus iria)
# Settings: amount of applied herbicide 320 g/ha
# Summary of the method: as §5
row,SMILES,herbicidal effect on E: rice flat sedge
1,Cc1nn(C)c(=O)c(-c2c(-c3ccc(C(F)F)cc3)sc3ccc(F)cc23)c1O [2-227],5 (Herbicidal rate of 90% or more (almost completely withered))
2,CCCSc1ccc(-c2sc3ccc(F)cc3c2-c2c(OC(=O)CCC)c(C)nn(C)c2=O)cc1 [2-249],5 (Herbicidal rate of 90% or more (almost completely withered))

# System: late watergrass
# Experiment: Test Example 1: herbicidal activity, application before weed generation under submerged conditions (Table 16, symbol A)
# Format: in vivo, late watergrass (Echinochloa oryzicola)
# Settings: 320 g/ha applied herbicide
# Summary of the method: as §1
row,SMILES,Herbicidal effect on A: late watergrass (grade 0-5)
1,Cc1nn(C)c(=O)c(-c2c(-c3ccc(C(F)F)cc3)sc3ccc(F)cc23)c1O [2-227],3 (Herbicidal rate of 40% or more and less than 70%)
2,CCCSc1ccc(-c2sc3ccc(F)cc3c2-c2c(OC(=O)CCC)c(C)nn(C)c2=O)cc1 [2-249],3 (Herbicidal rate of 40% or more and less than 70%)

# System: Italian ryegrass
# Experiment: Test Example 5: herbicidal effect by foliage application, plastic box (Table 20, symbol K)
# Format: in vivo, Italian ryegrass (Lolium multiflorum)
# Settings: foliage application, 320 g/ha, evaluated three weeks after application
# Summary of the method: as §2
row,SMILES,herbicidal effect on K: Italian ryegrass (criteria 0-5)
1,Cc1nn(C)c(=O)c(-c2c(-c3ccc(C(F)F)cc3)sc3ccc(F)cc23)c1O [2-227],4 (Herbicidal rate of 70% or more and less than 90%)
2,CCCSc1ccc(-c2sc3ccc(F)cc3c2-c2c(OC(=O)CCC)c(C)nn(C)c2=O)cc1 [2-249],3 (Herbicidal rate of 40% or more and less than 70%)

# System: oval-leafed pondweed
# Experiment: Test Example 2: herbicidal activity, application during weed generation under submerged conditions (Table 17, symbol C)
# Format: in vivo, oval-leafed pondweed (Monochoria vaginalis)
# Settings: AAH 320 g/ha; application during weed generation, submerged conditions
# Summary of the method: as §4
row,SMILES,"herbicidal effect rating, C: oval-leafed pondweed"
1,Cc1nn(C)c(=O)c(-c2c(-c3ccc(C(F)F)cc3)sc3ccc(F)cc23)c1O [2-227],0 (Herbicidal rate of 5% or less (almost no effect))
2,CCCSc1ccc(-c2sc3ccc(F)cc3c2-c2c(OC(=O)CCC)c(C)nn(C)c2=O)cc1 [2-249],2 (Herbicidal rate of 20% or more and less than 40%)

# System: wild oat
# Experiment: Test Example 5: herbicidal effect by foliage application, plastic box (Table 20, symbol I)
# Format: in vivo, wild oat (Avena fatua)
# Settings: foliage application, 320 g/ha, evaluated three weeks after application
# Summary of the method: as §2
row,SMILES,herbicidal effect on I: wild oat (criteria 0-5)
1,Cc1nn(C)c(=O)c(-c2c(-c3ccc(C(F)F)cc3)sc3ccc(F)cc23)c1O [2-227],0 (Herbicidal rate of 5% or less (almost no effect))
2,CCCSc1ccc(-c2sc3ccc(F)cc3c2-c2c(OC(=O)CCC)c(C)nn(C)c2=O)cc1 [2-249],4 (Herbicidal rate of 70% or more and less than 90%)

# System: barnyard grass
# Experiment: Test Example 5: herbicidal effect by foliage application, plastic box (Table 20, symbol H)
# Format: in vivo, barnyard grass (Echinochloa crus-galli)
# Settings: foliage application, 320 g/ha, evaluated three weeks after application
# Summary of the method: as §2
row,SMILES,herbicidal effect on H: barnyard grass (criteria 0-5)
1,Cc1nn(C)c(=O)c(-c2c(-c3ccc(C(F)F)cc3)sc3ccc(F)cc23)c1O [2-227],5 (Herbicidal rate of 90% or more (almost completely withered))
2,CCCSc1ccc(-c2sc3ccc(F)cc3c2-c2c(OC(=O)CCC)c(C)nn(C)c2=O)cc1 [2-249],5 (Herbicidal rate of 90% or more (almost completely withered))

# System: barnyard grass
# Experiment: Test Example 3: herbicidal effect by foliage application, Wagner pot (Table 18, symbol H)
# Format: in vivo, barnyard grass (Echinochloa crus-galli)
# Settings: amount of applied herbicide 320 g/ha
# Summary of the method: as §5
row,SMILES,herbicidal effect on H: barnyard grass
1,Cc1nn(C)c(=O)c(-c2c(-c3ccc(C(F)F)cc3)sc3ccc(F)cc23)c1O [2-227],5 (Herbicidal rate of 90% or more (almost completely withered))
2,CCCSc1ccc(-c2sc3ccc(F)cc3c2-c2c(OC(=O)CCC)c(C)nn(C)c2=O)cc1 [2-249],5 (Herbicidal rate of 90% or more (almost completely withered))

# System: blackgrass
# Experiment: Test Example 5: herbicidal effect by foliage application, plastic box (Table 20, symbol J)
# Format: in vivo, blackgrass (Alopecurus myosuroides)
# Settings: foliage application, 320 g/ha, evaluated three weeks after application
# Summary of the method: as §2
row,SMILES,herbicidal effect on J: blackgrass (criteria 0-5)
1,Cc1nn(C)c(=O)c(-c2c(-c3ccc(C(F)F)cc3)sc3ccc(F)cc23)c1O [2-227],3 (Herbicidal rate of 40% or more and less than 70%)
2,CCCSc1ccc(-c2sc3ccc(F)cc3c2-c2c(OC(=O)CCC)c(C)nn(C)c2=O)cc1 [2-249],4 (Herbicidal rate of 70% or more and less than 90%)

# System: redroot pigweed
# Experiment: Test Example 4: herbicidal effect by soil treatment (Table 19, symbol N)
# Format: in vivo, redroot pigweed (Amaranthus retroflexus)
# Settings: amount of applied herbicide 320 g/ha
# Summary of the method: as §3
row,SMILES,herbicidal effect on N: redroot pigweed
1,Cc1nn(C)c(=O)c(-c2c(-c3ccc(C(F)F)cc3)sc3ccc(F)cc23)c1O [2-227],5 (Herbicidal rate of 90% or more (almost completely withered))
2,CCCSc1ccc(-c2sc3ccc(F)cc3c2-c2c(OC(=O)CCC)c(C)nn(C)c2=O)cc1 [2-249],5 (Herbicidal rate of 90% or more (almost completely withered))

# System: windgrass
# Experiment: Test Example 4: herbicidal effect by soil treatment (Table 19, symbol L)
# Format: in vivo, windgrass (Apera spica-venti)
# Settings: amount of applied herbicide 320 g/ha
# Summary of the method: as §3
row,SMILES,herbicidal effect on L: windgrass
1,Cc1nn(C)c(=O)c(-c2c(-c3ccc(C(F)F)cc3)sc3ccc(F)cc23)c1O [2-227],0 (Herbicidal rate of 5% or less (almost no effect))
2,CCCSc1ccc(-c2sc3ccc(F)cc3c2-c2c(OC(=O)CCC)c(C)nn(C)c2=O)cc1 [2-249],0 (Herbicidal rate of 5% or less (almost no effect))
